Reference: patent US9533983B2, “Antiplatelet agent” (Mitsubishi Tanabe Pharma Corporation, priority 2009, dated 2017)

What was measured:
[1] = test system: Ristocetin-Induced Platelet Aggregation; assay: Platelet aggregation inhibitory activity: ristocetin-induced platelet aggregation in platelet rich plasma; assay type: cell-based; details: Cavia porcellus, guinea pig PRP
Method: (§1) A blood of a guinea pig was sampled by using a 1/10 volume of a 3.8% sodium citrate as a platelet aggregation inhibitor, and a platelet rich plasma (PRP) was separated by centrifuging the blood sample at 1100 rpm for 10 min. After fractionating the PRP in the upper layer, the lower layer was centrifuged at 3000 rpm for 10 min to fractionate the platelet poor plasma (PPP). To 100 μL of PRP, a 1 μL solution of each compound was added, and after still standing at 37° C. for 1 min, the mixture was stirred at 37° C. for 1 min by a stirrer. Then, 11 μL of collagen, ristocetin, or ADP was added thereto to induce the platelet aggregation. The platelet aggregation ability was measured by using the mCM hematolaser 313M (L-M-S Inc.). Based on the assumption that a light transmittance of PPP corresponds to a 100% coagulation value, an aggregation rate at each concentration of the compound was determined, then, an IC50 value was calculated therefrom.
[Platelet Aggregation Inhibitory Activities: Ristocetin-Induced Platelet Aggregation]

[2] = test system: Collagen-Induced Platelet Aggregation; assay: Platelet aggregation inhibitory activity: collagen-induced platelet aggregation in platelet rich plasma; assay type: cell-based; details: Cavia porcellus, guinea pig PRP
Method: as §1
[Platelet Aggregation Inhibitory Activities: Collagen-Induced Platelet Aggregation]

Row | IC50 [1] [nM] | IC50 [2] [nM] | SMILES
1 | 86 | 60 | COc1ccc(-n2c(-c3coc(C)n3)nc3cc(C(F)(F)F)ccc32)nn1 [Example 139, 1-(6-methoxypyridazin-3-yl)-2-(2-methyl-1,3-oxazol-4-yl)-5-(trifluoromethyl)-1H-benzimidazole]
2 | 22 | 30 | COc1cnc(-n2c(-c3ccc(F)cn3)nc3cc(C(F)(F)F)cnc32)cn1 [Example 144, 2-(5-fluoropyridin-2-yl)-3-(5-methoxypyrazine-2-yl)-6-(trifluoromethyl)-3H-imidazo[4,5-b]pyridine]
3 | 106 | 74 | COc1ccc(-n2c(-c3ccccn3)nc3cc(OC(C)C)cnc32)cn1 [Example 145, 6-isopropoxy-3-(6-methoxypyridin-3-yl)-2-pyridin-2-yl-3H-imidazo[4,5-b]pyridine]
4 | 66 | 78 | COc1ccc(-n2c(-c3ccccn3)nc3cc(OC(F)F)cnc32)cn1 [Example 146, 6-(difluoromethoxy)-3-(6-methoxypyridin-3-yl)-2-pyridin-2-yl-3H-imidazo[4,5-b]pyridine]
5 | 205 | 205 | CNc1ccc(-n2c(-c3ccc(C#N)cn3)nc3cc(C(F)(F)F)cnc32)cn1 [Example 150, 6-{3-[6-(methylamino)pyridin-3-yl]-6-(trifluoromethyl)-3H-imidazo[4,5-b]pyridin-2-yl]nicotinonitrile]
6 | 24 | 24 | COc1cnc(-n2c(-c3cocn3)nc3cc(C(F)(F)F)cnc32)cn1 [Example 151, 3-(5-methoxypyrazine-2-yl)-2-(1,3-oxazol-4-yl)-6-(trifluoromethyl)-3H-imidazo[4,5-b]pyridine]
7 | 86 | 86 | COc1cnc(-n2c(-c3coc(C)n3)nc3cc(C(F)(F)F)cnc32)cn1 [Example 152, 3-(5-methoxypyrazine-2-yl)-2-(2-methyl-1,3-oxazol-4-yl)-(trifluoromethyl)-3H-imidazo[4,5-b]pyridine]

More lines, now with the values behind:

Row | SMILES | IC50 [1] [nM] | IC50 [2] [nM]
8 | COc1ccc(-n2c(-c3cc(C)on3)nc3cc(C(F)(F)F)cnc32)cn1 [Example 108, 3-(6-methoxypyridin-3-yl)-2-(5-methylisoxazol-3-yl)-6-(trifluoromethyl)-3H-imidazo[4,5-b]pyridine] | 100 | 210
9 | COc1ccc(-n2c(-c3cscn3)nc3cc(C(F)(F)F)cnc32)cn1 [Example 109, 3-(6-methoxypyridin-3-yl)-2-(1,3-thiazol-4-yl)-6-(trifluoromethyl)-3H-imidazo[4,5-b]pyridine] | 23 | 95
10 | COc1ccc(-n2c(-c3csc(C)n3)nc3cc(C(F)(F)F)cnc32)cn1 [Example 110, 3-(6-methoxypyridin-3-yl)-2-(2-methyl-1,3-thiazol-4-yl)-6-(trifluoromethyl)-3H-imidazo[4,5-b]pyridine] | 120 | 130
11 | COc1ccc(-n2c(-c3coc(C)n3)nc3cc(C(F)(F)F)cnc32)cn1 [Example 122, 3-(6-methoxypyridin-3-yl)-2-(2-methyl-1,3-oxazol-4-yl)-6-(trifluoromethyl)-3H-imidazo[4,5-b]pyridine] | 40 | 34
12 | COc1cnc(-n2c(-c3ccccn3)nc3cc(C(F)(F)F)cnc32)cn1 [Example 125, 3-(5-methoxypyrazine-2-yl)-2-pyridin-2-yl-6-(trifluoromethyl)-3H-imidazo[4,5-b]pyridine] | 27 | 29
13 | COc1ccc(-n2c(-c3ncoc3C)nc3cc(C(F)(F)F)cnc32)cn1 [Example 126, 3-(6-methoxypyridin-3-yl)-2-(5-methyl-1,3-oxazol-4-yl)-6-(trifluoromethyl)-3H-imidazo[4,5-b]pyridine] | 90 | 194
14 | Cc1ccc(-n2c(-c3ccc(C#N)cn3)nc3cc(C(F)(F)F)cnc32)cn1 [Example 130, 6-[3-(6-methylpyridin-3-yl)-6-(trifluoromethyl)-3H-imidazo[4,5-b]pyridin-2-yl]nicotinonitrile] | 170 | 177
